The numbers were not newly measured in patent publication US20030083360A1, “Compaction process for manufacture of sodium phenytoin dosage form” (priority 2001, published 2003), which cites them from elsewhere.

Like-named read-outs stand apart in the source and are kept apart here.

For `O=C1NC(=O)C(c2ccccc2)(c2ccccc2)N1` [phenytoin, 5,5-diphenyl-2,4-imidazolidinedione], the solubility in water entry was “poor solubility in water”. Also, the solubility in water result (listed as free-phenytoin) is reported as “practically insoluble in water”. Regarding `O=C1N=C([O-])NC1(c1ccccc1)c1ccccc1.[Na+]` [sodium phenytoin], the solubility in water entry is given as “much more soluble”.
